The target of one assay is EP2 (Homo sapiens (Human), UniProt P43116).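 Further: antagonism of PGE2-stimulated cAMP accumulation in SF295 human glioblastoma cells with endogenous EP2, cAMP read by HTRF, expressed relative to DMSO control.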
A further assay deals with EP4 (Homo sapiens (Human), UniProt P35408). Nature of the assay: hEP4 cAMP assay (BT549 breast cancer cells, HTRF cAMP). It is filed as cell-based. As to conditions: antagonistic activity; mean values where measured multiple times. The protocol:
Plate is pre-incubated 45 minutes at room temperature. Subsequently, 2.5 microliters of PGE2 (final conc. 6 nM) are transferred into the assay plate. Plate is incubated 30 minutes at room temperature.

SMILES strings stand for the structures.

Chain of EP2 (P43116 whole entry): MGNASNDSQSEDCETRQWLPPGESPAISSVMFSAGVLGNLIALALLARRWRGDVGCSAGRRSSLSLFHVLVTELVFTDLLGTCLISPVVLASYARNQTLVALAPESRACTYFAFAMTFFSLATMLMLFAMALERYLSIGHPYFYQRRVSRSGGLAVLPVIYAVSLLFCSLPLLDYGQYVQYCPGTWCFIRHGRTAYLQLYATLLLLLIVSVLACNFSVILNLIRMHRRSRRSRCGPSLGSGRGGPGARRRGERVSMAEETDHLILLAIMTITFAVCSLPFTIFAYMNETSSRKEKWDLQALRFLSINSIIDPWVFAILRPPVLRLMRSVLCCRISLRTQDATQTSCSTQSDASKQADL
Chain of EP4 (P35408 whole entry): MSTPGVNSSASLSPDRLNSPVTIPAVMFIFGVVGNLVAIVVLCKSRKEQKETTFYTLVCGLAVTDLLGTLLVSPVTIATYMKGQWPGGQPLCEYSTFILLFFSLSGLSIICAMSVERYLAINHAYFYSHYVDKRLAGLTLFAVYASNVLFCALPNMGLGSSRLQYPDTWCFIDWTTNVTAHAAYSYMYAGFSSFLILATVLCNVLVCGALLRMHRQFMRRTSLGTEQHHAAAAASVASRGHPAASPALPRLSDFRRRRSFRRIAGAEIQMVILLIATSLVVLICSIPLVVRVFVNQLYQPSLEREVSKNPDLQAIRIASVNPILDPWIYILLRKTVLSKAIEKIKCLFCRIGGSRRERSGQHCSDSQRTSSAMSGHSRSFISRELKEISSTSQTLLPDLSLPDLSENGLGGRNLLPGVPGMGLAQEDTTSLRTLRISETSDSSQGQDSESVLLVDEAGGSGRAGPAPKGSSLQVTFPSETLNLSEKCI

As to `Cc1ccc(F)c2c1cc(C)n2CCNc1cc(-c2ccc(-c3nc(C(=O)O)cs3)cc2)ncn1` [compound 546], the IC50 on EP2 worked out at 16 nM; against EP4 it was 57 nM.
Consider `Cc1cc(F)cc2c1cc(C)n2CCNc1cc(-c2ccc(-c3cncn3C)cc2)ncn1` [compound 547], for which the IC50 at EP2 came out at 63 nM; on EP4, 232 nM.
For the molecule `Cc1nc(-c2ccc(-c3cc(NCCn4c(C)cc5c(C)cc(F)cc54)ncn3)cc2)c[nH]1` [compound 548], the IC50 was found to be 6 nM on EP2 and 61 nM on EP4.
As for `COc1ccc(F)c2c1cc(C)n2CCNc1cc(-c2ccc(C(=O)NCCN(C)C)cc2)ncn1` [compound 549], the IC50 came to 131 nM against EP2 and 865 nM at EP4.
In the same order, the values of `Cc1cc2c(Cl)cc(Cl)cc2n1CCNc1cc(-c2ccc(-c3csc(C(=O)O)n3)cc2)ncn1` [compound 550] are 33 nM and 573 nM.
In the same order, the values of `Cc1cc2c(Cl)cc(Cl)cc2n1CCNc1cc(-c2ccc(-c3nc(C(=O)O)cs3)cc2)ncn1` [compound 551] are 5 nM and 339 nM.
In the same order, the values of `Cc1cc(F)cc2c1cc(C)n2CCNc1cc(-c2ccc(-c3cnc(N)o3)cc2)ncn1` [compound 552] are 26 nM and 118 nM.
`Cc1nnc(-c2ccc(-c3cc(NCCn4c(C)cc5c(C)ccc(F)c54)ncn3)cc2)o1` [compound 553]: the results for the 50% inhibitory concentration (IC50) against EP2 and against EP4 were 102 nM and 192 nM, respectively.
Consider `CCNC(=O)Nc1ccc(-c2cc(NCCn3c(C)cc4c(OC)ccc(Cl)c43)ncn2)cc1OC` [compound 554], for which the figures for the IC50 against EP2 and against EP4 were 56 nM and 65 nM, respectively.
In the same order, the values of `CCNC(=O)Nc1ccc(-c2cc(NCCn3c(C)cc4c(OC)ccc(F)c43)ncn2)cc1OC` [compound 555, 1-Ethyl-3-(4-{6-[2-(7-fluoro-4-methoxy-2-methyl-indol-1-yl)-ethylamino]-pyrimidin-4-yl}-2-methoxy-phenyl)-urea] are 23 nM and 28 nM.
As to `COc1ccc(F)c2c1cc(C)n2CCNc1cc(-c2cccc(-n3cccn3)c2)ncn1` [compound 556], the IC50 is 54 nM against EP2 and 418 nM against EP4.
In the same order, the values of `COc1cccc2c1cc(C)n2CCNc1cc(-c2ccc(-c3nc(C(=O)O)cs3)cc2)ncn1` [compound 557] are 5 nM and 78 nM.
Consider `COc1cc(F)cc2c1cc(C)n2CCNc1cc(-c2ccc(-c3ccon3)cc2)ncn1` [compound 558], for which the IC50 against EP2 came out at 16 nM; against EP4 it was 111 nM.
`Cc1ccc(F)c2c1cc(C)n2CCNc1cc(-c2ccc(C(=O)O)c(NCC(F)(F)F)c2)ncn1` [compound 560, 4-{6-[2-(7-Fluoro-2,4-dimethyl-indol-1-yl)-ethylamino]-pyrimidin-4-yl}-2-(2,2,2-trifluoro-ethylamino)-benzoic acid]: the IC50 was determined as 7 nM at EP2 and 107 nM against EP4.
In the same order, the values of `Cc1ccc(F)c2c1cc(C)n2CCNc1cc(-c2ccc(-c3ccccn3)cc2)ncn1` [compound 561] are 102 nM and 374 nM.
In the same order, the values of `CCOc1cc(-c2cc(NCCn3c(C)cc4c(C)ccc(F)c43)ncn2)ccc1CNCCOC` [compound 562] are 359 nM and 547 nM.
In the same order, the values of `CNS(=O)(=O)c1ccc(-c2cc(NCCn3c(C)cc4c(C)ccc(F)c43)ncn2)cc1C(F)(F)F` [compound 563] are 111 nM and 601 nM.
Regarding `COc1ccc(F)c2c1cc(C)n2CCNc1cc(-c2ccc(C3(C(=O)O)CC3)c(F)c2)ncn1` [compound 564], the IC50 against EP2 stood at 75 nM; against EP4 it was 317 nM.
In the case of `Cc1nc(-c2ccc(-c3cc(NCCn4c(C)cc5c(C)cc(F)cc54)ncn3)cc2)co1` [compound 565], the concentration for half-maximal inhibition (IC50) against EP2 was 77 nM; against EP4, 434 nM.
In the same order, the values of `COc1cccc2c1cc(C)n2CCNc1cc(-c2ccc(-c3csc(C)n3)cc2)ncn1` [compound 566] are 46 nM and 537 nM.
Consider `COc1ccc(F)c2c1cc(C)n2CCNc1cc(-c2ccc(S(N)(=O)=O)c(C(F)(F)F)c2)ncn1` [compound 567, 4-{6-[2-(7-Fluoro-4-methoxy-2-methyl-indol-1-yl)-ethylamino]-pyrimidin-4-yl}-2-trifluoromethyl-benzenesulfonamide], for which the IC50 came out at 17 nM at EP2 and 89 nM at EP4.
In the same order, the values of `COc1cccc2c1cc(C)n2CCNc1cc(-c2ccc(C(=O)O)c(NCC(F)(F)F)c2)ncn1` [compound 568, 4-{6-[2-(4-Methoxy-2-methyl-indol-1-yl)-ethylamino]-pyrimidin-4-yl}-2-(2,2,2-trifluoro-ethylamino)-benzoic acid] are 1 nM and 118 nM.
In the same order, the values of `Cc1cc(F)cc2c1cc(C)n2CCNc1cc(-c2ccc(-c3nnc(N)s3)cc2)ncn1` [compound 569] are 17 nM and 77 nM.
With `CCCc1cc(-c2cc(NCCn3c(C)cc4c(OC(F)(F)F)ccc(F)c43)ncn2)ccc1C(=O)O` [compound 570], the figures for the IC50 at EP2 and against EP4 were 773 nM and 309 nM, respectively.
Regarding `COc1cc(F)cc2c1cc(C)n2CCNc1cc(-c2ccc(-c3cnc(N)o3)cc2)ncn1` [compound 572], the IC50 against EP2 stood at 18 nM; against EP4, 45 nM.
In the same order, the values of `COc1ccc(F)c2c1cc(C)n2CCNc1cc(-c2ccc(-c3cnc(N)o3)cc2)ncn1` [compound 573] are 7 nM and 21 nM.
In the same order, the values of `COc1ccc(F)c2c1cc(C)n2CCNc1cc(-c2ccc(-c3nnc(C)o3)cc2)ncn1` [compound 574] are 33 nM and 208 nM.
For the molecule `Cc1nc(-c2ccc(-c3cc(NCCn4c(C)cc5c(C)cc(F)c(F)c54)ncn3)cc2)c[nH]1` [compound 575], the values for the IC50 against EP2 and on EP4 were 22 nM and 52 nM, respectively.
In the same order, the values of `Cc1cc(F)c(F)c2c1cc(C)n2CCNc1cc(-c2ccc(-c3cncn3C)cc2)ncn1` [compound 576] are 399 nM and 355 nM.
Regarding `Cc1cc(F)c(F)c2c1cc(C)n2CCNc1cc(-c2ccc(-c3cnc(N)o3)cc2)ncn1` [compound 577], the results for the IC50 against EP2 and against EP4 were 114 nM and 118 nM, respectively.
In the same order, the values of `COc1cc(F)cc2c1cc(C)n2CCNc1cc(-c2ccc(-c3csc(C(=O)O)n3)cc2)ncn1` [compound 578] are 9 nM and 52 nM.
In the same order, the values of `COc1cc(F)cc2c1cc(C)n2CCNc1cc(-c2ccc(-c3nc(C(=O)O)cs3)cc2)ncn1` [compound 579] are 11 nM and 41 nM.
For the molecule `COc1ccc(F)c2c1cc(C)n2CCNc1cc(-c2ccc(-c3nc(C(=O)O)cs3)cc2)ncn1` [compound 580], the IC50 on EP2 was 4 nM; against EP4, 32 nM.
As to `COc1cc(F)cc2c1cc(C)n2CCNc1cc(-c2ccc(-c3c[nH]c(C)n3)cc2)ncn1` [compound 581], the IC50 worked out at 5 nM at EP2 and 33 nM on EP4.
With `COc1cc(F)cc2c1cc(C)n2CCNc1cc(-c2ccc(-c3cncn3C)cc2)ncn1` [compound 582], the IC50 is 50 nM against EP2 and 161 nM against EP4.
In the same order, the values of `COc1cc(F)cc2c1cc(C)n2CCNc1cc(-c2ccc(-c3cc(C)[nH]n3)cc2)ncn1` [compound 583] are 10 nM and 65 nM.
On to `COc1ccc(F)c2c1cc(C)n2CCNc1cc(-c2ccc(-c3cncn3C)cc2)ncn1` [compound 584], for which the figures for the half-inhibitory concentration (IC50) against EP2 and against EP4 were 39 nM and 148 nM, respectively.
Regarding `COc1cc(F)cc2c1cc(C)n2CCNc1cc(-c2ccc(-c3coc(C)n3)cc2)ncn1` [compound 585], the figures for the IC50 against EP2 and on EP4 were 31 nM and 203 nM, respectively.
Regarding `CCOc1cc(-c2cc(NCCn3c(C)cc4c(OC)ccc(F)c43)ncn2)ccc1CNCC(C)C` [compound 586], the IC50 against EP2 stood at 729 nM; on EP4, 865 nM.
On to `COc1cc(F)cc2c1cc(C)n2CCNc1cc(-c2ccc(C(=O)O)c(NCC(F)(F)F)c2)ncn1` [compound 587, 4-{6-[2-(6-Fluoro-4-methoxy-2-methyl-indol-1-yl)-ethylamino]-pyrimidin-4-yl}-2-(2,2,2-trifluoro-ethylamino)-benzoic acid], for which the IC50 against EP2 amounted to 2 nM; against EP4, 106 nM.
On to `COc1ccc(F)c2c1cc(C)n2CCNc1cc(-c2ccc(C(=O)O)c(NCC(F)(F)F)c2)ncn1` [compound 588, 4-{6-[2-(7-Fluoro-4-methoxy-2-methyl-indol-1-yl)-ethylamino]-pyrimidin-4-yl}-2-(2,2,2-trifluoro-ethylamino)-benzoic acid], for which the IC50 on EP2 was 2 nM; against EP4 it was 92 nM.
In the same order, the values of `CCOc1cc(-c2cc(NCCn3c(C)cc4c(OC)ccc(F)c43)ncn2)ccc1CNCCOC` [compound 589] are 228 nM and 707 nM.
Consider `COc1ccc(F)c2c1cc(C)n2CCNc1cc(-c2ccc(-c3ccccn3)cc2)ncn1` [compound 590], for which the 50% inhibitory concentration (IC50) came out at 18 nM against EP2 and 178 nM on EP4.
In the same order, the values of `CNS(=O)(=O)c1ccc(-c2cc(NCCn3c(C)cc4c(OC)ccc(F)c43)ncn2)cc1C(F)(F)F` [compound 591, 4-{6-[2-(7-Fluoro-4-methoxy-2-methyl-indol-1-yl)-ethylamino]-pyrimidin-4-yl}-N-methyl-2-trifluoromethyl-benzenesulfonamide] are 33 nM and 294 nM.
For the molecule `CNc1nnc(-c2ccc(-c3cc(NCCn4c(C)cc5c(C)cc(F)cc54)ncn3)cc2)s1` [compound 592], the IC50 against EP2 is 13 nM; against EP4, 39 nM.
In the same order, the values of `COc1ccc(F)c2c1cc(C)n2CCNc1cc(-c2ccc(-c3n[nH]cc3C(=O)O)cc2)ncn1` [compound 593] are 157 nM and 435 nM.
In the case of `COc1ccc(F)c2c1cc(C)n2CCNc1cc(-c2ccc(-c3cc(C(=O)O)[nH]n3)cc2)ncn1` [compound 594], the IC50 at EP2 came out at 190 nM; on EP4 it was 42 nM.
